Results published in patent publication US9771352B2, “Hydroxyalkyl-substituted phenyltriazole derivatives and uses thereof” (BAYER PHARMA AKTIENGESELLSCHAFT, priority 2014, dated 2017).

How the values were obtained:
human V2 receptor = target: T1, human V2 receptor (Homo sapiens, UniProt P30518); assay: Cellular in vitro assay for determining vasopressin receptor activity, V2 receptor cell line (CRE-luciferase); type: cell-based; settings: CHO cell line transfected with human V2 receptor; [Arg8]-vasopressin at EC50; compounds of the invention (Table 1A); read-out: IC50 hV2
T1 construct: expressed in transfected cells; host or cells: CHO K1 (ATCC) expressing firefly luciferase under a CRE-responsive promoter
Protocol: (§1) The identification of agonists and antagonists of the V1a and V2 vasopressin receptors from humans, rats and dogs as well as the quantification of the activity of the compounds of the invention is carried out using recombinant cell lines. These cell lines originally derive from a hamster's ovary epithelial cell (Chinese Hamster Ovary, CHO K1, ATCC: American Type Culture Collection, Manassas, Va. 20108, USA). The test cell lines constitutively express the human, rat or dog V1a or V2 receptors. In case of the […] V1a receptors, cells are also stably transfected with a modified form of the calcium-sensitive photoproteins aequorin (human and rat V1a) or obelin (dog V1a), which, after reconstitution with the cofactor coelenterazine, emit light when there are increases in free calcium concentrations [Rizzuto R, Simpson A W, Brini M, Pozzan T, Nature 358, 325-327 (1992); Illarionov B A, Bondar V S, Illarionova V A, Vysotski E S, Gene 153 (2), 273-274 (1995)]. The resulting vasopressin receptor cells react to stimulation of the recombinantly expressed V1a receptors by intracellular release of calcium ions, which can be quantified by the resulting photoprotein luminescence. The Gs-coupled V2 receptors are stably transfected into cell lines expressing the gene for firefly luciferase under control of a CRE-responsible promoter. Activation of V2 receptors induces the activation of the CRE-responsive promoter via cAMP increase, thereby inducing the expression of firefly luciferase. The light emitted by photoproteins of V1a cell lines as well as the light emitted by firefly luciferase of V2 cell lines corresponds to the activation or inhibition of the respective vasopressin receptor. The bioluminescence of the cell lines is detected using a suitable luminometer [Milligan G, Marshall F, Rees S, Trends in Pharmacological Sciences 17, 235-237 (1996)].
On the day before the assay, the cells are plated out in culture medium (DMEM/F12, 2% FCS, 2 mM glutamine, 10 mM HEPES) in 384-well microtiter plates and kept in a cell incubator (96% humidity, 5% v/v CO2, 37° C.). […] Upon addition of the cell lysis reagent Triton and the substrate luciferin, luminescence of firefly luciferase is measured in a luminometer.
(§2) Table 1A below lists individual IC50 values for the compounds of the invention (including diastereomeric mixtures as well as separated, enantiopure diastereomers) that were obtained from cell lines transfected with the human V1a or V2 receptor: […]

human V1a receptor = target: T2, human V1a receptor (Homo sapiens, UniProt P37288); assay: Cellular in vitro assay for determining vasopressin receptor activity, V1a receptor cell line (photoprotein luminescence); type: cell-based; settings: CHO cell line transfected with human V1a receptor; [Arg8]-vasopressin at EC50; compounds of the invention (Table 1A); read-out: IC50 hV1a
T2 construct: expressed in transfected cells; host or cells: CHO K1 (ATCC), also stably transfected with modified aequorin
Protocol: as §1
On the day before the assay, the cells are plated out in culture medium (DMEM/F12, 2% FCS, 2 mM glutamine, 10 mM HEPES, 5 μg/ml coelenterazine) in 384-well microtiter plates and kept in a cell incubator (96% humidity, 5% v/v CO2, 37° C.). On the day of the assay, test compounds in various concentrations are placed for 10 minutes in the wells of the microtiter plate before the agonist [Arg^8]-vasopressin at EC50 concentration is added. The resulting light signal is measured immediately in the luminometer.
as §2

T2 sequence (P37288 whole entry): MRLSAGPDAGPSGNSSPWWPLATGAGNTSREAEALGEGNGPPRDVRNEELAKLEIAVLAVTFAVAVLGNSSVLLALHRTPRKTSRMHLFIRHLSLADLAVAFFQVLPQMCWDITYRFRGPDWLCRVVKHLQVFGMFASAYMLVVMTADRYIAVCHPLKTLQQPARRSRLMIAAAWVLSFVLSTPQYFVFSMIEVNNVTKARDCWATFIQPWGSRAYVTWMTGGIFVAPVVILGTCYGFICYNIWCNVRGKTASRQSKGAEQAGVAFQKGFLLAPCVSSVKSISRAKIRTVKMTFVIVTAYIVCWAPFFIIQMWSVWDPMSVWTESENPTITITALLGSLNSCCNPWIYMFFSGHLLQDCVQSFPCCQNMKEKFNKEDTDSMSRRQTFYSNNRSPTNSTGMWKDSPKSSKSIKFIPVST
T1 sequence (P30518 whole entry): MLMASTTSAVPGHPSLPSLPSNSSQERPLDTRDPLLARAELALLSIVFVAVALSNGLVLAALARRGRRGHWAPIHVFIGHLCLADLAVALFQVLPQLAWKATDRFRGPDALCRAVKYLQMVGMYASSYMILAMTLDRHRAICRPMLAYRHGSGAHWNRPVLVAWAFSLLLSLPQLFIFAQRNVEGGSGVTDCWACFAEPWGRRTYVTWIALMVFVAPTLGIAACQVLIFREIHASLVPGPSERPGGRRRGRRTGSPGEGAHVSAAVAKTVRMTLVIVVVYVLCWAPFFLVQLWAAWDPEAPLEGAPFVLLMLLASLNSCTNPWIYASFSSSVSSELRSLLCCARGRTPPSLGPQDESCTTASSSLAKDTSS

| Compound | IC50 (human V2 receptor) [nM] | IC50 (human V1a receptor) [nM] |
| --- | --- | --- |
| CC(O)c1nc(Cn2nc(-c3ccc(Cl)cc3)n(C[C@H](O)C(F)(F)F)c2=O)nn1-c1cccc(OC(F)F)c1 (mixture of isomers) [Example 55, 5-(4-Chlorophenyl)-2-({1-[3-(difluoromethoxy)phenyl]-5-[(1RS)-1-hydroxyethyl]-1H-1,2,4-triazol-3-yl}methyl)-4-[(2S)-3,3,3-trifluoro-2-hydroxypropyl]-2,4-dihydro-3H-1,2,4-triazol-3-one] | 4.2 | 14.8 |
| CC(O)c1nc(Cn2nc(-c3ccc(Cl)cc3)n(C[C@H](O)C(F)(F)F)c2=O)nn1-c1cc(F)ccc1Cl (mixture of isomers) [Example 58, 2-({1-(2-Chloro-5-fluorophenyl)-5-[(1RS)-1-hydroxyethyl]-1H-1,2,4-triazol-3-yl}methyl)-5-(4-chlorophenyl)-4-[(2S)-3,3,3-trifluoro-2-hydroxypropyl]-2,4-dihydro-3H-1,2,4-triazol-3-one] | 1.5 | 0.2 |
| CC(O)c1nc(Cn2nc(-c3ccc(Cl)cc3)n(C[C@H](O)C(F)(F)F)c2=O)nn1-c1cccc(Cl)c1Cl (mixture of isomers) [Example 61, 5-(4-Chlorophenyl)-2-({1-(2,3-dichlorophenyl)-5-[(1RS)-1-hydroxyethyl]-1H-1,2,4-triazol-3-yl}-methyl)-4-[(2S)-3,3,3-trifluoro-2-hydroxypropyl]-2,4-dihydro-3H-1,2,4-triazol-3-one] | 0.2 | 3.2 |
| CC(O)c1nc(Cn2nc(-c3ccc(Cl)cc3)n(C[C@H](O)C(F)(F)F)c2=O)nn1-c1cccc(F)c1F (mixture of isomers) [Example 64, 5-(4-Chlorophenyl)-2-({1-(2,3-difluorophenyl)-5-[(1RS)-1-hydroxyethyl]-1H-1,2,4-triazol-3-yl}-methyl)-4-[(2S)-3,3,3-trifluoro-2-hydroxypropyl]-2,4-dihydro-3H-1,2,4-triazol-3-one] | 5.1 | 8.1 |
| CC(O)c1nc(Cn2nc(-c3ccc(Cl)cc3)n(C[C@H](O)C(F)(F)F)c2=O)nn1-c1cccc(F)c1 (mixture of isomers) [Example 75, 5-(4-Chlorophenyl)-2-({1-(3-fluorophenyl)-5-[(1RS)-1-hydroxyethyl]-1H-1,2,4-triazol-3-yl}-methyl)-4-[(2S)-3,3,3-trifluoro-2-hydroxypropyl]-2,4-dihydro-3H-1,2,4-triazol-3-one] | 6.6 | 2.9 |
| CC(O)c1nc(Cn2nc(-c3ccc(Cl)cc3)n(C[C@H](O)C(F)(F)F)c2=O)nn1-c1cccc(Cl)c1 (mixture of isomers) [Example 78, 5-(4-Chlorophenyl)-2-({1-(3-chlorophenyl)-5-[(1RS)-1-hydroxyethyl]-1H-1,2,4-triazol-3-yl}-methyl)-4-[(2S)-3,3,3-trifluoro-2-hydroxypropyl]-2,4-dihydro-3H-1,2,4-triazol-3-one] | 3.1 | 10.4 |
| COc1ccccc1-n1nc(Cn2nc(-c3ccc(Cl)cc3)n(C[C@H](O)C(F)(F)F)c2=O)nc1C(C)O (single isomer, unassigned) [Example 11] | 0.3 | 0.4 |
| COc1ccccc1-n1nc(Cn2nc(-c3ccc(Cl)cc3)n(C[C@H](O)C(F)(F)F)c2=O)nc1C(C)O (single isomer, unassigned) [Example 12] | 1.1 | 1.3 |
| CC(O)c1nc(Cn2nc(-c3ccc(Cl)cc3)n(C[C@H](O)C(F)(F)F)c2=O)nn1-c1ccccc1 (single isomer, unassigned) [Example 18] | 8.6 | 14.1 |
| CC(O)c1nc(Cn2nc(-c3ccc(Cl)cc3)n(C[C@H](O)C(F)(F)F)c2=O)nn1-c1cccc(C(F)F)c1 (single isomer, unassigned) [Example 20] | 0.8 | 3.8 |
| CC(O)c1nc(Cn2nc(-c3ccc(Cl)cc3)n(C[C@H](O)C(F)(F)F)c2=O)nn1-c1cccc(C(F)F)c1 (single isomer, unassigned) [Example 21] | 2.2 | 57.8 |
| CC(O)c1nc(Cn2nc(-c3ccc(Cl)cc3)n(C[C@H](O)C(F)(F)F)c2=O)nn1-c1cccc(C(F)(F)F)c1 (single isomer, unassigned) [Example 23] | 0.9 | 12.2 |
| CC(O)c1nc(Cn2nc(-c3ccc(Cl)cc3)n(C[C@H](O)C(F)(F)F)c2=O)nn1-c1cccc(C(F)(F)F)c1 (single isomer, unassigned) [Example 24] | 2 | 120 |
| CC(O)c1nc(Cn2nc(-c3ccc(Cl)cc3)n(C[C@H](O)C(F)(F)F)c2=O)nn1-c1cc(F)cc(F)c1 (single isomer, unassigned) [Example 26] | 3 | 3.1 |
| CC(O)c1nc(Cn2nc(-c3ccc(Cl)cc3)n(C[C@H](O)C(F)(F)F)c2=O)nn1-c1cc(F)cc(F)c1 (single isomer, unassigned) [Example 27] | 7.7 | 43.7 |
| Cc1cccc(-n2nc(Cn3nc(-c4ccc(Cl)cc4)n(C[C@H](O)C(F)(F)F)c3=O)nc2C(C)O)c1 (single isomer, unassigned) [Example 30] | 0.4 | 71.6 |
| CCc1ccccc1-n1nc(Cn2nc(-c3ccc(Cl)cc3)n(C[C@H](O)C(F)(F)F)c2=O)nc1C(C)O (single isomer, unassigned) [Example 32] | 1 | 0.9 |
| CCc1ccccc1-n1nc(Cn2nc(-c3ccc(Cl)cc3)n(C[C@H](O)C(F)(F)F)c2=O)nc1C(C)O (single isomer, unassigned) [Example 33] | 2.3 | 1.6 |
| CC(O)c1nc(Cn2nc(-c3ccc(Cl)cc3)n(C[C@H](O)C(F)(F)F)c2=O)nn1-c1ccc(F)cc1Cl (single isomer, unassigned) [Example 35] | 1.6 | 0.5 |
| CC(O)c1nc(Cn2nc(-c3ccc(Cl)cc3)n(C[C@H](O)C(F)(F)F)c2=O)nn1-c1ccc(F)cc1Cl (single isomer, unassigned) [Example 36] | 2.8 | 0.8 |
| COc1ccc(F)cc1-n1nc(Cn2nc(-c3ccc(Cl)cc3)n(C[C@H](O)C(F)(F)F)c2=O)nc1C(C)O (single isomer, unassigned) [Example 38] | 0.9 | 0.6 |
| COc1ccc(F)cc1-n1nc(Cn2nc(-c3ccc(Cl)cc3)n(C[C@H](O)C(F)(F)F)c2=O)nc1C(C)O (single isomer, unassigned) [Example 39] | 3.5 | 1.5 |
| CC(O)c1nc(Cn2nc(-c3ccc(Cl)cc3)n(C[C@H](O)C(F)(F)F)c2=O)nn1-c1ccccc1F (single isomer, unassigned) [Example 41] | 7.9 | 1.8 |
| CC(O)c1nc(Cn2nc(-c3ccc(Cl)cc3)n(C[C@H](O)C(F)(F)F)c2=O)nn1-c1ccccc1F (single isomer, unassigned) [Example 42] | 12.7 | 5.1 |
| CC(O)c1nc(Cn2nc(-c3ccc(Cl)cc3)n(C[C@H](O)C(F)(F)F)c2=O)nn1-c1ccc(F)c(Cl)c1 (single isomer, unassigned) [Example 44] | 1.2 | 6.1 |
| CC(O)c1nc(Cn2nc(-c3ccc(Cl)cc3)n(C[C@H](O)C(F)(F)F)c2=O)nn1-c1ccc(F)c(Cl)c1 (single isomer, unassigned) [Example 45] | 3.3 | 92.1 |
| CC(O)c1nc(Cn2nc(-c3ccc(Cl)cc3)n(C[C@H](O)C(F)(F)F)c2=O)nn1-c1cc(Cl)cc(Cl)c1 (single isomer, unassigned) [Example 47] | 3.7 | 18.9 |
| CC(O)c1nc(Cn2nc(-c3ccc(Cl)cc3)n(C[C@H](O)C(F)(F)F)c2=O)nn1-c1cc(Cl)cc(Cl)c1 (single isomer, unassigned) [Example 48] | 2.4 | 3.2 |
| CC(O)c1nc(Cn2nc(-c3ccc(Cl)cc3)n(C[C@H](O)C(F)(F)F)c2=O)nn1-c1cc(Cl)ccc1Cl (single isomer, unassigned) [Example 50] | 10 | 1.3 |
